From ChEMBL document CHEMBL5247666, “The rational design of novel 5-amino-2-oxindole derivatives with antiglaucomic activity” (2023)
Calls of active or inactive are those of the source. The rule behind the calls is not given here.

What was measured:
Oryctolagus cuniculus [1] = assay: Hypotensive effect in normotensive chinchilla rabbits assessed as reduction in intraocular pressure administered once to both eyes and measured every hour for 6 hrs by automatic veterinary tonometer based assay relative to control; format: functional; design: concentration or dose not given beside the values
Oryctolagus cuniculus [2] = assay: Hypotensive effect in normotensive chinchilla rabbits assessed as maximal effective time administered once to both eyes and measured every hour for 6 hrs by automatic veterinary tonometer based assay; format: functional
Oryctolagus cuniculus [3] = assay: Hypotensive effect in normotensive chinchilla rabbits assessed as reduction in intraocular pressure administered once to both eyes and measured after 6 hrs by automatic veterinary tonometer based assay; format: functional, organism-based
Oryctolagus cuniculus [4] = assay: Hypotensive effect in New Zealand white rabbits assessed as reduction in intraocular pressure at 100 uM administered topically in presence of reserpine and measured every hour for 8 hrs relative to control; format: functional; design: scale not given: the % may be the effect or the level left
Oryctolagus cuniculus [5] = assay: Hypotensive effect in New Zealand white rabbits assessed as reduction in intraocular pressure at 100 uM administered topically in presence of 6-hydroxydopamine and measured every hour for 8 hrs relative to control; format: functional; design: scale not given: the % may be the effect or the level left
Oryctolagus cuniculus [6] = assay: Hypotensive effect in normotensive chinchilla rabbits assessed as reduction in intraocular pressure administered once to both eyes and measured after 6 hrs by automatic veterinary tonometer based assay relative to control; format: functional; design: scale not given: the % may be the effect or the level left

SMILES | Activity (Oryctolagus cuniculus [1]) [%] | Time (Oryctolagus cuniculus [2]) [h] | Activity (Oryctolagus cuniculus [3]) | Activity (Oryctolagus cuniculus [4]) [%] | Activity (Oryctolagus cuniculus [5]) [%] | Activity (Oryctolagus cuniculus [6]) [%]
COC(=O)Nc1ccc2c(c1)C(CC(=O)O)C(=O)N2 (stereo unspecified) | 12 | 3 |  |  |  | 
CC(C)(C)NC[C@H](O)COc1nsnc1N1CCOCC1 [TIMOLOL] | 18 | 3 | inactive |  |  | 
COC(=O)Nc1ccc2[nH]cc(CCNC(C)=O)c2c1 |  |  |  | 5 | 5 | 
COc1ccc2[nH]cc(CCNC(C)=O)c2c1 [MELATONIN] | 12 | 3 |  | 5 | 5 | 
CCOC(=O)Nc1ccc2c(c1)C(CC#N)C(=O)N2 (stereo unspecified) | 8 | 5 |  |  |  | 
COC(=O)Nc1ccc2c(c1)C(CC#N)C(=O)N2 (stereo unspecified) | 24 | 2 |  |  |  | 17
